Patent publication US5385941A, “Salts/ion pairs of non-steroidal anti-inflammatory drugs in various dosage forms” (Warner-Lambert Company, priority 1993, dated 1995)
Converted amounts (≈) assume the structure as drawn.

Test: physchem
Conditions: water

Cc1ccc(Cl)c(Nc2ccccc2C(=O)O)c1Cl [MA, Meclofenamic acid]
solubility: 30 µg/mL (≈ 101 µM)
